Legend:
[1] = tested on: miR-16, miR-28, miR-182, miR-10a, miR-21, miR-155; test: RT-qPCR of other micro-RNAs (selectivity); type: cell-based, human; details: AGS and AsPC1 cell lines; normalized to U6
Drosha = test: Western blot, Drosha expression; type: cell-based, human; details: AsPC1, AGS, U251, LN229
Protocol: (§1) Proteins are collected from cultured cells and lysed with 10× Lysis Buffer (Cell Signaling) freshly supplemented with a complete protease inhibitor cocktail and phosphatase inhibitors (Sigma). Bradford assay is used to measure protein concentration. Proteins are separated by polyacrylamide gel (Bio-rad) electrophoresis and were transferred to a 0.2 μm nitrocellulose membrane (Bio-rad). Quantification of protein expression was conducted using the image analysis software ImageJ.

VEGF = test: Western blot, VEGF expression; type: cell-based, human; details: LN229 and U251 brain cancer cell lines
Protocol: as §1

[2] = Microsomal stability assay, human; type: in vitro ADME; details: pH 7.4; human liver microsomes; 1 μM test compound; unit printed in b356 only
Protocol: The liver microsomal incubation mixture was composed of liver microsomes (with a concentration of 0.5 mg microsomal protein/ml), the test compound (1 μM), MgCl2 (3 mM), EDTA (1 mM) in potassium phosphate buffer (100 mM, pH 7.4). Control substrates used were Midazolam and Ketanserin. The reaction was initiated with the addition of an NADPH regeneration solution (1.3 mM NADPH) and maintained at 37° C. with shaking. At five sequential time points ranging from 0 to 45 min, aliquots of the mixture (50 μL) were removed and quenched with acetonitrile (100 μL) containing an internal standard control (imipramine) Samples were analyzed after vortexing and centrifugation by liquid chromatography-mass spectrometry (LC-MS/MS). The in vitro t1/2 was then calculated and clearance followed literature.

U251 cell line [3] = test: MTS proliferation assay, U251; type: cell-based, human; details: 5 and 10 μM, beginning at 48 h of treatment
Protocol: IC50 dose-response curves were determined using the cell proliferation assay system. Briefly, 5,000 or 10,000 cells of each cell line were plated in 96-well microculture plates in replicates of either 4 or 6. When cells became adherent, either 5 or 10 sequentially decreasing doses of the small molecule miRNA inhibitor were diluted into new media and added to individual wells. After either 24 or 48 hours, of a tetrazolium salt such as MTS, MTT, or WST-8 was added to each well at the same time of day as treatment and incubated for either 2 or 3 h at 37° C. The OD, measuring at the appropriate wavelength for the dye, was read at on a microplate spectrophotometer.
Cell proliferation is determined using a colorimetric assay. A tetrazolium salt such as MTS, MTT, or WST-8 is reduced by dehydrogenase activities in cells to give a formazan dye, which is soluble in the tissue culture media. The amount of the formazan dye (generated by the activities of dehydrogenases in cells, and directly proportional to the number of living cells) is measured after 3 h of incubation. The OD is read at 450 nm on a microplate spectrophotometer and growth values (%) are calculated as (OD treated cells/OD untreated cells)×100. The experiments are performed in triplicate. […] The OD is read at 450/550 nm on a microplate spectrophotometer, after one to seven days of the treatment. […]

U251 brain cancer line = test: Clonogenic assay; type: cell-based, human; details: dose-dependent, 1 μM up to 5 μM, two weeks
Protocol: In vitro clonogenic assays were conducted with adherent lines seeded in 12-well plates, treated for two weeks, and stained with crystal violet.

U251 cell line [4] = test: Annexin V/PI apoptosis assay by flow cytometry, U251; type: cell-based, human; details: 48 h
Protocol: (§2) In 6-well plates, 1×10^5 cells/mL were added into each well. After 24 h, sequential concentrations of DMSO and 4 based were administered and the plates were incubated for 48 h. The supernatant and adherent cells were collected and centrifugated. Each dose was done in triplicate, with each sample composing two wells. For apoptosis analysis, the supernatant was discarded after centrifugation and the pellet washed with PBS twice. Then, BD Annexin V-FITC/PI used to stain the cells for analysis via flow cytometry on the Gallios machine. For cell cycle analysis, after washing with PBS, cells were fixed with ethanol and incubated. They, were treated with RNase enzyme and analyzed.

AsPC1 cell line = test: Migration assay, AsPC1; type: cell-based, human; details: vs DMSO
Dicer = test: Western blot, Dicer expression; type: cell-based, human; details: AsPC1, AGS, U251, LN229
Protocol: as §1

AGS gastric cell line = test: Annexin V/PI apoptosis assay by flow cytometry, AGS; type: cell-based, human; details: up to 10 μM, 48 h
Protocol: as §2

PTEN [5] = test: Western blot, PTEN expression; type: cell-based, human
Protocol: as §1

PTEN [6] = test: Proteomics (RPPA), PTEN expression; type: cell-based, human; set-up: dose or concentration left out as unconfirmed; details: U251
Protocol: Proteomics analysis was conducted at the Reverse Phase Protein Array Core facility at MD Anderson Cancer Center. Briefly, controls and treated samples were analyzed in triplicate for 486 unique antibodies. The outputs were then normalized for protein loading and transformed to the linear value, and the normalized data was logy transformed (log2(x+1)) and sorted by FDR-adjusted p-values with a significance level of p<0.05. Differentially expressed proteins between groups were identified using the moderated t-test from LIMMA package. […] Analyses and graphical representations were carried out in R. When preparing the data for analysis, the loge fold change was calculated and adjusted p-value was used for analysis. Gene symbols were converted using the DAVID bioinformatics resource and the clusterProfiler data visualization and analysis package was used for pathway enrichment analysis. For pathway analysis, the Hallmark gene set and Gene Ontology was used for gene set and pathway enrichment.

Cc1ccc(F)c(NC(=O)Nc2ccc(-c3cccc4cn[nH]c34)cc2)c1 [Example 4, 1-(4-(1H-indazol-7-yl)phenyl)-3-(2-fluoro-5-methylphenyl)urea]
selectivity for miR-10b over other micro-RNAs [1]: selectivity of compound 4 for miR-10b becomes apparent | Drosha expression (Western blot) (Drosha): little to no variation | VEGF expression (Western blot) (VEGF): low to very slight variations | CLint scaled at 1 μM [2]: 14.9 mL/min/kg | half-life at 1 μM [2]: 1.93 h | proliferation (MTS), every 24 h over 96 h (U251 cell line [3]): significant difference in proliferation | formation of colonies (U251 brain cancer line): suppressed the formation of colonies | increase in total apoptotic cells compared to control (U251 cell line [4]; 5 μM): approximately 4.5 fold | total apoptotic cells at 10 μM compared with 5 μM (U251 cell line [4]; 10 μM): approximately the same | migration (AsPC1 cell line): decreased migration | Dicer expression (Western blot) (Dicer): little to no variation | apoptotic cells (AGS gastric cell line): gradual increase | PTEN expression (Western blot) (PTEN [5]; LN229 brain cancer cell line): upregulation of PTEN | PTEN expression (Western blot) (PTEN [5]; U251 brain cancer cell line): upregulation of PTEN | PTEN expression (proteomics) (PTEN [6]): significantly upregulated

From patent US20230145868A1, “UREA INHIBITORS OF MICRO-RNA” (Board of Regents, The University of Texas System, priority 2020, published 2023)
